biological target: human APJ receptor (Homo sapiens (Human), UniProt P35414); assay: [35S]GTPγS binding assay on membranes from CHO cells stably expressing human APJ receptor; format: biochemical; settings: membranes of CHO cells stably expressing human APJ receptor, read-out: Activity hAPJ SPA EC50 IP
Procedure, shortened: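 [35S]GTPγS binding measured on membranes from CHO cells stably expressing FLAG-tagged human APJ, with GDP, MgCl2 and NaCl levels optimized beforehand. Incubation 90 min at RT, imager read-out; EC50 from non-linear regression, averaged over several independent experiments.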

human APJ receptor, sequence (P35414 whole entry): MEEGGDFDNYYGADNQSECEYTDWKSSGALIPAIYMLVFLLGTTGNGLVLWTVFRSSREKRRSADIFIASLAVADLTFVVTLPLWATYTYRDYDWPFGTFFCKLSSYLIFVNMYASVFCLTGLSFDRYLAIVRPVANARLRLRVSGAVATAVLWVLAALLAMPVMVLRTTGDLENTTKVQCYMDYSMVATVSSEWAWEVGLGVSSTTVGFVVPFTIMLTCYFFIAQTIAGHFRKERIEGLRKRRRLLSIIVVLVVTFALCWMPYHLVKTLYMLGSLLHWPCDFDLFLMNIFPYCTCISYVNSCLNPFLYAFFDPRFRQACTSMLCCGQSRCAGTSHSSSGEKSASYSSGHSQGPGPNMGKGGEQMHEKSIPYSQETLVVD

In order of rising EC50:
1. CC[C@@H](C)n1c(NS(=O)(=O)[C@@H](C)[C@H](OC)c2ncc(Cl)cn2)nnc1-c1cccc(OC)n1 (single isomer, unassigned) [Example 54.0]  0.5 nM
2. COc1cccc(-c2nnc(NS(=O)(=O)[C@@H](C)[C@H](OC)c3ncc(Cl)cn3)n2[C@H](C)c2cnn(C)c2)n1 (single isomer, unassigned) [Example 338.0, (1R,2S)-1-(5-chloropyrimidin-2-yl)-1-methoxy-N-(5-(6-methoxypyridin-2-yl)-4-((R)-1-(1-methyl-1H-pyrazol-4-yl)ethyl)-4H-1,2,4-triazol-3-yl)propane-2-sulfonamide or (1R,2S)-1-(5-chloropyrimidin-2-yl)-1-methoxy-N-(5-(6-methoxypyridin-2-yl)-4-((S)-1-(1-methyl-1H-pyrazol-4-yl)ethyl)-4H-1,2,4-triazol-3-yl)propane-2-sulfonamide]  0.56 nM
3. COC[C@@H](C)n1c(NS(=O)(=O)[C@@H](C)[C@H](OC)c2ncc(Cl)cn2)nnc1-c1cccc(OC)n1 [Example 49.0]  0.88 nM
4. COc1cccc(-c2nnc(NS(=O)(=O)[C@@H](C)[C@H](OC)c3ncc(Cl)cn3)n2[C@@H]2CC[C@H]2OC)n1 (single isomer, unassigned) [Example 161.0, (1R,2S)-1-(5-Chloropyrimidin-2-yl)-1-methoxy-N-(4-((1R,2R)-2-methoxycyclobutyl)-5-(6-methoxypyridin-2-yl)-4H-1,2,4-triazol-3-yl)propane-2-sulfonamide or (1R,2S)-1-(5-chloropyrimidin-2-yl)-1-methoxy-N-(4-((1S,2S)-2-methoxycyclobutyl)-5-(6-methoxypyridin-2-yl)-4H-1,2,4-triazol-3-yl)propane-2-sulfonamide]  2.2 nM
5. COc1cccc(-c2nnc(NS(=O)(=O)[C@@H](C)[C@H](C)c3ncc(Cl)cn3)n2[C@@H](C)c2ccno2)n1 (single isomer, unassigned) [Example 214.0, (2S,3R)-3-(5-chloro-2-pyrimidinyl)-N-(5-(6-methoxy-2-pyridinyl)-4-((1S)-1-(1,2-oxazol-5-yl)ethyl)-4H-1,2,4-triazol-3-yl)-2-butanesulfonamide or (2S,3R)-3-(5-chloro-2-pyrimidinyl)-N-(5-(6-methoxy-2-pyridinyl)-4-((1R)-1-(1,2-oxazol-5-yl)ethyl)-4H-1,2,4-triazol-3-yl)-2-butanesulfonamide]  2.9 nM
6. COc1cccc(-c2nnc(NS(=O)(=O)[C@@H](C)[C@H](C)c3ncc(Cl)cn3)n2[C@@H](C)c2ccno2)n1 (mixture of isomers) [Example 201.0, (2S,3R)-3-(5-chloro-2-pyrimidinyl)-N-(5-(6-methoxy-2-pyridinyl)-4-((1R)-1-(1,2-oxazol-5-yl)ethyl)-4H-1,2,4-triazol-3-yl)-2-butanesulfonamide and (2S,3R)-3-(5-chloro-2-pyrimidinyl)-N-(5-(6-methoxy-2-pyridinyl)-4-((1S)-1-(1,2-oxazol-5-yl)ethyl)-4H-1,2,4-triazol-3-yl)-2-butanesulfonamide]  3.5 nM
7. COc1cccc(-c2nnc(NS(=O)(=O)[C@@H](C)[C@H](OC)c3ncc(Cl)cn3)n2Cc2ccno2)n1 [Example 266.0, (1R,2S)-1-(5-chloropyrimidin-2-yl)-N-(4-(isoxazol-5-ylmethyl)-5-(6-methoxypyridin-2-yl)-4H-1,2,4-triazol-3-yl)-1-methoxypropane-2-sulfonamide]  9.6 nM
8. COc1cccc(-c2nnc(NS(=O)(=O)[C@@H](C)[C@H](OC)c3ncc(Cl)cn3)n2CCSC)n1 [Example 26.0, (1R,2S)-1-(5-chloropyrimidin-2-yl)-1-methoxy-N-(5-(6-methoxypyridin-2-yl)-4-(2-(methylthio)ethyl)-4H-1,2,4-triazol-3-yl)propane-2-sulfonamide]  12 nM
9. COc1cccc(-c2nnc(NS(=O)(=O)[C@@H](C)[C@@H](OC(C)C)c3ncc(C)cn3)n2[C@H](C)[C@@H]2CCCCO2)n1 (single isomer, unassigned) [Example 321.0]  12 nM
10. COc1cccc(-c2nnc(NS(=O)(=O)[C@@H](C)[C@H](OC)c3ncc(Cl)cn3)n2C[C@@H]2CCCOC2)n1 (racemic) [Example 312.0, (1R,2S)-1-(5-chloropyrimidin-2-yl)-1-methoxy-N-(5-(6-methoxypyridin-2-yl)-4-(((R)-tetrahydro-2H-pyran-3-yl)methyl)-4H-1,2,4-triazol-3-yl)propane-2-sulfonamide or (1R,2S)-1-(5-chloropyrimidin-2-yl)-1-methoxy-N-(5-(6-methoxypyridin-2-yl)-4-(((S)-tetrahydro-2H-pyran-3-yl)methyl)-4H-1,2,4-triazol-3-yl)propane-2-sulfonamide]  13 nM
11. COc1cccc(-c2nnc(NS(=O)(=O)[C@@H](C)[C@H](C)c3ncc(Cl)cn3)n2[C@@H](C)c2ncc(C)o2)n1 (single isomer, unassigned) [Example 257.0, (2S,3R)-3-(5-chloro-2-pyrimidinyl)-N-(5-(6-methoxy-2-pyridinyl)-4-((1S)-1-(5-methyl-1,3-oxazol-2-yl)ethyl)-4H-1,2,4-triazol-3-yl)-2-butanesulfonamide or (2S,3R)-3-(5-chloro-2-pyrimidinyl)-N-(5-(6-methoxy-2-pyridinyl)-4-((1R)-1-(5-methyl-1,3-oxazol-2-yl)ethyl)-4H-1,2,4-triazol-3-yl)-2-butanesulfonamide]  16 nM
12. COc1cccc(-c2nnc(NS(=O)(=O)[C@@H](C)[C@@H](OC(C)C)c3ncc(C)cn3)n2C[C@H]2CCCO2)n1 (racemic) [Example 278.0, (1S,2S)-1-isopropoxy-N-(5-(6-methoxypyridin-2-yl)-4-(((R)-tetrahydrofuran-2-yl)methyl)-4H-1,2,4-triazol-3-yl)-1-(5-methylpyrimidin-2-yl)propane-2-sulfonamide or (1S,2S)-1-isopropoxy-N-(5-(6-methoxypyridin-2-yl)-4-(((S)-tetrahydrofuran-2-yl)methyl)-4H-1,2,4-triazol-3-yl)-1-(5-methylpyrimidin-2-yl)propane-2-sulfonamide]  16 nM
13. COc1cccc(-c2nnc(NS(=O)(=O)[C@@H](C)[C@@H](OC(C)C)c3ncc(C)cn3)n2[C@@H](C)c2ccon2)n1 (single isomer, unassigned) [Example 269.0, (1S,2S)-1-isopropoxy-N-(4-((R)-1-(isoxazol-3-yl)ethyl)-5-(6-methoxypyridin-2-yl)-4H-1,2,4-triazol-3-yl)-1-(5-methylpyrimidin-2-yl)propane-2-sulfonamide or (1S,2S)-1-isopropoxy-N-(4-((S)-1-(isoxazol-3-yl)ethyl)-5-(6-methoxypyridin-2-yl)-4H-1,2,4-triazol-3-yl)-1-(5-methylpyrimidin-2-yl)propane-2-sulfonamide]  17 nM
14. COCC(COC)n1c(NS(=O)(=O)[C@@H](C)[C@H](OC)c2ncc(C)cn2)nnc1-c1ccccn1 [Example 8.0, (1R,2S)-N-(4-(1,3-dimethoxy-2-propanyl)-5-(2-pyridinyl)-4H-1,2,4-triazol-3-yl)-1-methoxy-1-(5-methyl-2-pyrimidinyl)-2-propanesulfonamide]  19 nM
15. COCC1(n2c(NS(=O)(=O)[C@@H](C)[C@@H](OC(C)C)c3ncc(C)cn3)nnc2-c2cncc(C)c2)CC1 [Example 63.0]  20 nM
16. COc1cccc(-c2nnc(NS(=O)(=O)[C@@H](C)[C@H](C)c3ncc(Cl)cn3)n2Cc2cc(C(F)(F)F)no2)n1 [Example 204.0, (2S,3R)-3-(5-chloro-2-pyrimidinyl)-N-(5-(6-methoxy-2-pyridinyl)-4-((3-(trifluoromethyl)-1,2-oxazol-5-yl)methyl)-4H-1,2,4-triazol-3-yl)-2-butanesulfonamide]  21 nM
17. COc1cc(Cn2c(NS(=O)(=O)[C@@H](C)[C@H](C)c3ncc(Cl)cn3)nnc2-c2cccc(OC)n2)on1 [Example 198.0, (2S,3R)-3-(5-chloro-2-pyrimidinyl)-N-(4-((3-methoxy-1,2-oxazol-5-yl)methyl)-5-(6-methoxy-2-pyridinyl)-4H-1,2,4-triazol-3-yl)-2-butanesulfonamide]  24 nM
18. COc1cccc(-c2nnc(NS(=O)(=O)[C@@H](C)[C@H](OC)c3ncc(Cl)cn3)n2CCc2ccc(F)cc2)n1 [Example 74.0]  31 nM
19. CO[C@H](c1ncc(Cl)cn1)[C@H](C)S(=O)(=O)Nc1nnc(-c2cncc(C)c2)n1C1CC1 [Example 149.0, (1R,2S)-1-(5-Chloropyrimidin-2-yl)-N-(4-cyclopropyl-5-(5-methylpyridin-3-yl)-4H-1,2,4-triazol-3-yl)-1-methoxypropane-2-sulfonamide]  36 nM
20. CC(C)O[C@@H](c1ncc(Cl)cn1)[C@H](C)S(=O)(=O)Nc1nnc(-c2cccnc2)n1C1CC1 [Example 128.0]  55 nM
21. COc1cccc(-c2nnc(NS(=O)(=O)[C@@H](C)[C@@H](OC(C)C)c3ncc(C)cn3)n2[C@@H](C)c2c(C)noc2C)n1 (racemic) [Example 315.0]  57 nM
22. CCc1noc(C)c1Cn1c(NS(=O)(=O)[C@@H](C)[C@H](C)c2ncc(Cl)cn2)nnc1-c1cccc(OC)n1 [Example 193.0, (2S,3R)-3-(5-chloro-2-pyrimidinyl)-N-(4-((3-ethyl-5-methyl-1,2-oxazol-4-yl)methyl)-5-(6-methoxy-2-pyridinyl)-4H-1,2,4-triazol-3-yl)-2-butanesulfonamide]  430 nM
23. COc1cccc(-c2nnc(NS(=O)(=O)[C@@H](C)[C@H](C)c3ncc(Cl)cn3)n2Cc2cnoc2)n1 [Example 187.0, (2S,3R)-3-(5-chloropyrimidin-2-yl)-N-(4-(isoxazol-4-ylmethyl)-5-(6-methoxypyridin-2-yl)-4H-1,2,4-triazol-3-yl)butane-2-sulfonamide]  650 nM
